Consider 15 molecules from patent US10772863B2, “Methods of inducing metabolic maturation of human pluripotent stem cells— derived hepatocytes” (priority 2016, dated 2020).

“And” between values parts separate entries of the source, which are not always exact repeats. Equal entries are not always repeated. “Also recorded” adds a separate entry of the source. Where two headings read alike, the source gives them in different places.

Data set [1] concerns hESC-derived hepatocytes. It is filed as cell-based, human. Particulars: LA replaced with 9CLA, with 100 μM OA.
The target of a further data set is PXR (Homo sapiens, UniProt O75469). The data set is classed as cell-based. The procedure: (§1) Cultured cells were fixed using 4% paraformaldehyde for 15 minutes at room temperature. […] Following washes, cells were incubated with secondary antibodies for 1 hour at room temperature in blocking buffer (Table 10, hereinbelow). Hoechst staining was performed using bisBenzimide H33342 for 2 minutes. Imaging was performed on a Zeiss LSM 700 confocal microscope.
Chain of PXR (O75469 whole entry): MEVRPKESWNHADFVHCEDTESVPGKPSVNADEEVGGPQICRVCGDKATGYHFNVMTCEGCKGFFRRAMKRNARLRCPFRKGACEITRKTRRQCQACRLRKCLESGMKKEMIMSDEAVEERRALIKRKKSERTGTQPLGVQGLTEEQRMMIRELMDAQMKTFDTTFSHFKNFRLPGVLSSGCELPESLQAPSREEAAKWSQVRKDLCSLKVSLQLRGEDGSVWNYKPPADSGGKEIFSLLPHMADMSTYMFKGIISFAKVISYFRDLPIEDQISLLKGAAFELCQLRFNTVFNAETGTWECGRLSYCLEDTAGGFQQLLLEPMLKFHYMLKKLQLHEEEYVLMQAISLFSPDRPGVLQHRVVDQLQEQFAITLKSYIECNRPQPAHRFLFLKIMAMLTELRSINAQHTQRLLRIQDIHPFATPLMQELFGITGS

Data set [2] deals with PXR and its CYP2C9 and CYP3A4 target genes.
In data set [3] the test system is hESC-derived hepatocytes. The data set can be described thus: HSP60 immunofluorescence and CellProfiler analysis of mitochondrial network. The data set is classed as cell-based, human. The procedure: as §1
In data set [4] the test system is hESC-derived hepatocytes. Description: qRT-PCR of nuclear receptors, lipid metabolism, albumin and mitochondrial genes after fatty acid treatment. It is filed as cell-based, human. A general note: Real-time PCR tracks product formation cycle by cycle.
Data set [5] concerns hESC-derived hepatocytes. The data set can be described thus: Albumin, AFP and ApoB100 production (ELISA). The conditions noted are these: cells treated with OA and LA; 24-hours treatment with GW9662. The data set is classed as cell-based, human. As for the experimental part:
Culture media samples were collected daily and stored at −80° C. Albumin and AFP concentrations were analyzed using Human Albumin ELISA quantitation set (Bethyl laboratories, Montgomery, Tex.) and Human AFP (alpha-fetoprotein) Quantikine ELISA kit (R&D Systems, Minneapolis, Minn.), according to manufacturer directions. […] Data was normalized to total cellular protein utilizing the Bradford assay.
For orientation: An ELISA detects its analyte on a solid surface through an enzyme-linked reagent.

Data set [6] has as its system hESC-derived hepatocytes. It is filed as cell-based, human. The conditions noted are these: 50 μM LCA.
Data set [7] concerns CYP450 (CYP1A, CYP3A4, CYP2C9). Particulars: human, 72 h. As for the experimental part: CYP1A activity was evaluated utilizing EROD (ethoxyresorufin-o-deethylase) as previously described (Behnia, 2000). […] Briefly, cultures were incubated with 100 μM BFC (7-benzyloxy-4-trifluoromethylcoumarinat), or 10 μM MFC (7-methoxy-4-trifluoromethylcoumarin) for 1 hour at 37° C. Supernatant samples were collected every 30 minutes for 2.5 hours. The reactions were stopped by collection of the incubation medium. Metabolite conjugates formed via phase II activity were hydrolyzed by incubation of medium samples with β-glucuronidase/arylsulfatase for 2 hours at 37° C. Samples were diluted 1:1 in quenching solution and HFC (7-hydroxy-4-trifluoromethylcoumarin), the respective fluorescent metabolite formation, was measured at the appropriate wavelengths (410/510) and normalized to total protein determined by Bradford.
CYP450 activity was quantified as described above at the end of the stimulation period.

Data set [8] deals with LCA- and MK4-treated hESC-derived hepatocytes. As for the experimental part:
Cultured cells were exposed to different concentrations of compounds dissolved in culture medium for 24 hours at 37° C. Cell viability was determined utilizing LIVE/DEAD Cytotoxicity kit (Molecular Probes, Eugene, Oreg.) according to manufacturer instructions. In brief, cultures were incubated with 2 μM Calcein AM and 3 μM ethidium homodimer-1 for 25 minutes. Hydrolysis by functional intracellular esterases causes live cells to fluoresce green, while the punctured membranes of dead cells permit ethidium homodimer-1 to bind DNA and fluoresce red. Cellular viability was calculated by live to dead ratio and normalized to negative control. TC50 values were quantified using GraphPad Prism software (La Jolla, Calif.).
Differentiation was adapted to 96-well plates (General Materials and Experimental Methods above). Cells were exposed to increasing concentrations of compounds on day 16, and viability was quantified using fluorescence Live/Dead staining after 24 hours of exposure (FIG. 4D).

In data set [9] the test system is hESC-derived hepatocytes. Particulars: human, 24 h. The procedure: Quantification of intracellular lipids was performed using LipidTOX™ Green Neutral Lipid Stain (Molecular Probes). […] Staining intensity was normalized to negative control. […] Incubation media was removed and cultures washed with ice-cold PBS containing calcium and magnesium. The number of green CDF particles was normalized to the number of Hoechst nuclei as an indicator of functional bile canaliculi. Particle and nuclei counting was performed utilizing the ImageJ particle analyzer.

Data set [10] has as its system hESC-derived hepatocytes. As for the experimental part:
Toxicological endpoints were evaluated for nine hepatotoxic compounds at TC20 values identified above. Quantitation of apoptotic cells was performed utilizing DeadEnd™ fluorometric TUNEL System (Promega, Madison, Wis.) according to manufacturer instructions. […] Cell were permeabilized and exposed to fluorescein-12-dUTP and terminal deoxynucleotidyl transferase (TdT), dying apoptotic nuclei green. The reaction was subsequently stopped and the cells counterstained for DAPI. A percent apoptotic nucleus was calculated by dividing the number of TUNEL to DAPI positive nuclei.

For the molecule `CCCCCC/C=C/C=C\CCCCCCCC(=O)O` [9CLA, cis-9,trans-11-octadecadienoic acid], the “mitochondrial respiration relative to primary human hepatocytes” value in the data set with hESC-derived hepatocytes [1] came to 60%. Also, on PXR (100 μM each, 9CLA replaces LA, with OA), the “increase in PXR nuclear localization compared to untreated cells” value is recorded as 50%. On PXR (with OA), the “additional increase in PXR nuclear localization when LA is replaced with 9CLA” value was 30% and 40%. For the same molecule, the “CYP3A4 and CYP2C9 gene expression” value in [2] (hepatocytes) is “increased significantly”.

`C[S+](C)[O-]` [DMSO, Dimethyl sulfoxide]: in data set [2] (human, hepatocytes, 2 %), the “CYP450 gene expression” value was “increased expression of all CYP450 enzymes measured”; the “increase in expression of PXR and most CYP450 enzymes checked” value is given as 2-6 fold.

With `O=C(Nc1ccccc1)c1cc([N+](=O)[O-])ccc1Cl` [GW9662], in the data set with hESC-derived hepatocytes [3], the “effect on fatty acid induced elongation and narrowing of mitochondria” value is recorded as “reversed the effect”. Also, the “effect on expression of genes involved in lipid metabolism” value in the data set with hESC-derived hepatocytes [4] (24-hours treatment, OA and LA treated cells) is given as “inhibited”. Also, the “PGC1, MFN2 and FIS1 gene expression” value in the data set on hESC-derived hepatocytes [4] (fatty acid treated cells) is listed as “decrease”. Moreover, the “effect on PXR nuclear localization” value at PXR (fatty acid treated cells) is “down-regulated; also recorded: significant decrease”. Also, the “CYP3A4 and CYP2C9 gene expression” value in data set [2] (fatty acid treated cells) is “down-regulated”. In the data set with hESC-derived hepatocytes [5], the “effect on albumin secretion / albumin gene expression and production” value was “significant decrease; also recorded: blocked”.

As to `C[C@H](CCC(=O)O)[C@H]1CC[C@H]2[C@@H]3CC[C@@H]4C[C@H](O)CC[C@]4(C)[C@H]3CC[C@]12C` [LCA, lithocholic acid], in the data set with hESC-derived hepatocytes [6], the “toxicity to differentiating cells” value is given as “mild toxicity”.

Consider `CC(C)=CCC/C(C)=C/CC/C(C)=C/CC/C(C)=C/CC1=C(C)C(=O)c2ccccc2C1=O` [MK4, menaquinone-4], for which the PXR expression induction in [2] (10 μM, final maturation step) is 1.9 fold.

For the molecule `COc1ccc2[nH]c([S+]([O-])Cc3ncc(C)c(OC)c3C)nc2c1` (centres unmarked) [Omeprazole, omeprazole], in data set [7], the “induction of BFC metabolism” value is on record as 3 fold. The “induction of EROD metabolism” value in data set [7] (50 μM) turned out to be 9 fold. In data set [7] (hepatocytes, 50 μM), the “induction of CYP450 activity” value is recorded as “preferentially induced CYP1A”.

Turning to `CC(=O)Oc1ccccc1C(=O)O` [acetylsalicylic acid], the “TC20 concentration used for endpoint assays” value (“TC20 concentration used” below) in [8] (human, 24 h) was found to be 2000 µM. For the same molecule, the “increase in intracellular lipids compared to control” value (“increase in intracellular lipids” for short) in the data set on hESC-derived hepatocytes [9] is recorded as 25-26 fold.

As to `CN(C)CCCN1c2ccccc2Sc2ccc(Cl)cc21` [chlorpromazine], the “TC20 concentration used” value in [8] (human, 24 h) is 45 µM. Further, in the data set on hESC-derived hepatocytes [9], the “decrease in number of CDF-positive bile canaliculi compared to control” value is listed as 13-30 fold and the “loss of epithelial polarization” value was 14 fold.

With `O=C(O)Cc1ccccc1Nc1c(Cl)cccc1Cl` [diclofenac], the “TC20 concentration used” value in data set [8] (human) is 300 µM. Besides, the “DNA fragmentation compared to control” value in the data set with hESC-derived hepatocytes [10] was “significant increase”. In addition, the “increase in percent of apoptotic nuclei compared to control” value in the data set with hESC-derived hepatocytes [10] (human, 24 h) is listed as 3-4 fold.

Consider `OC[C@@H](O)[C@@H](O)[C@H](O)[C@H](O)CO` [mannitol], for which, in data set [8], the “toxicity” value is “no adverse effects”.

In the case of `COc1ccc2[nH]cc(CCNC(C)=O)c2c1` [melatonin], the “toxicity” value in [8] is “clear toxicity”. The same molecule returned a TC50 in data set [8] (human, 24 h) of 0.7 ± 0.2 mM. Moreover, the “effect on cell viability” value with hESC-derived hepatocytes [10] is reported as “not affecting”. Besides, in the data set on hESC-derived hepatocytes [9], the “increase in intracellular lipids” value came out at 30 fold and the “intracellular lipid accumulation” value is given as “significant (P<0.006) increase”.

As to `CC1CCC(C(C)C)C(O)C1` (centres unmarked) [menthol], the “toxicity” value in data set [8] was “no adverse effects”.

Regarding `Cc1c(C)c2c(c(C)c1O)CCC(C)(COc1ccc(CC3SC(=O)NC3=O)cc1)O2` (centres unmarked) [troglitazone], the “TC20 concentration used” value in data set [8] (human, 24 h) worked out at 80 µM. Further, in the data set on hESC-derived hepatocytes [9], the “decrease in number of CDF-positive bile canaliculi compared to control” value is on record as 13-30 fold and the “loss of epithelial polarization” value came to 14 fold.

Consider `CCCC(CCC)C(=O)O` [valproic acid], for which the “increase in intracellular lipids” value in the data set on hESC-derived hepatocytes [9] was 25-26 fold.

With aflatoxin B1, in data set [8], the “TC20 concentration used” value amounted to 2 µM. In addition, the “DNA fragmentation compared to control” value with hESC-derived hepatocytes [10] is reported as “significant increase”.
